{"source": "patent US8501796B2", "about": "“Ester pro-drugs of [3-(1-(1H-imidazol-4-yl)ethyl)-2-methylphenyl] methanol for lowering intraocular pressure” (Allergan, Inc., priority 2010, dated 2013)", "key": {"[1]": {"test_system": "Normotensive male Dutch-Belted rabbits", "assay": "IOP lowering in normotensive rabbits after a topical eye drop", "format": "in vivo", "details": "rabbit, single 50 μl topical drop yielding 0.15% or 0.3% of active metabolite, 1% polysorbate 80 pH 5.5; IOP measured 0-8 hours; FIG. 1", "method": "The experimental animals used, were Normotensive male Dutch-Belted rabbits (Myrtle's Rabbitry) over 6 months in age (n=4/compound/dose screened). A single drop (50 μl) of the drug formulation, which yields 0.15% or 0.3% of the active metabolite when completely hydrolyzed in 1% polysorbate 80 at pH 5.5, was administered topically by pipette onto the right eye (treated eye) at approximately 0700 hours. IOP of the rabbits (treated and untreated eyes) was measured 0 hours before and at 0.5, 1, 2, 3, 4, 6 and 8 hours after topical eyedrop administration. IOP at the time of eye drop administration (0 hours) was used as a baseline value. Prior to the tonometric measurements, 0.05% proparacaine (50 μl) was administered to each eye. Tonometric IOP measurements were obtained with a Mentor Pneumontonmeter. Additionally, all studies were masked. At least 1 week of wash-out time was allowed for each rabbit between dosings. All animals were examined for sedation, ocular irritation, and changes in pupil diameter throughout the course of the experiments."}, "monkeys": {"test_system": "monkeys", "assay": "Intraocular pressure-lowering effect in monkeys compared to placebo", "format": "in vivo", "details": "monkeys treated with composition containing the compound"}}}
{"smiles": "Cc1c(COC(=O)C(C)C)cccc1[C@H](C)c1c[nH]cn1", "note": "[Compound 1, iso-Butyric acid 3-[(S)-1-(1H-imidazol-4-yl)-ethyl]-2-methyl-benzyl ester]", "values": [{"measurement": "IOP lowering capacity (efficacy) compared to Alphagan P", "setting": "[1]", "value": "equal or comparable efficacy to Alphagan P®"}, {"measurement": "intraocular pressure duration compared to Alphagan P", "setting": "[1]", "value": "longer intraocular pressure duration than Alphagan P®"}, {"measurement": "time for which the decrease in intraocular pressure is maintained", "setting": "monkeys", "value": "up to 24 hours"}]}
